Data on two compounds can be found in patent US11089783B2, “2-(het)aryl-substituted fused heterocycle derivatives as pesticides” (Bayer Aktiengesellschaft, priority 2017, dated 2021).

Common to all, as to assay type: in vivo
Experiment [1] relates to Myzus persicae. Nature of the experiment: Myzus persicae spray test (MYZUPE S), bell pepper plants. The conditions noted are these: 144 h, 6 dat, read-out: % efficacy. The method, then: [table] To produce an appropriate active ingredient formulation, 1 part by weight of active ingredient is dissolved with the specified parts by weight of solvent and made up with water containing an emulsifier concentration of 1000 ppm until the desired concentration is attained. To produce further test concentrations, the mixture is diluted with emulsifier-containing water. If addition of ammonium salts or/and penetrants is required, these are each added to the preparation solution in a concentration of 1000 ppm. Bell pepper plants (Capsicum annuum) severely infested by the green peach aphid (Myzus persicae) are treated by spraying with the active ingredient formulation in the desired concentration. After the desired time, the kill in % is determined. 100% means that all the animals have been killed; 0% means that no animals have been killed.

Another experiment deals with Nezara viridula. Nature of the experiment: Nezara viridula spray test (NEZARA / NEZAVI). The conditions noted are these: Nezara viridula, 96 h, 4 dat, read-out: % efficacy. The protocol: [table] To produce an appropriate active ingredient formulation, 1 part by weight of active ingredient is dissolved with the specified parts by weight of solvent and made up with water containing an emulsifier concentration of 1000 ppm until the desired concentration is attained. To produce further test concentrations, the mixture is diluted with emulsifier-containing water. If addition of ammonium salts or/and penetrants is required, these are each added to the preparation solution in a concentration of 1000 ppm. Barley plants (Hordeum vulgare) infected with larvae of the southern green shield bug (Nezara viridula) are sprayed with an active ingredient formulation of the desired concentration. After the desired time, the efficacy in % is determined. 100% means that all bugs have been killed; 0% means that no bugs have been killed.

The test system of the next experiment is Tetranychus urticae. Briefly: Tetranychus urticae spray test, OP-resistant (TETRUR). The conditions noted are these: Tetranychus urticae, 144 h; TETRUR, 100 g/ha, 6 dat; read-out: % efficacy. The method, then: [table] To produce a suitable active ingredient formulation, 1 part by weight of active ingredient is dissolved with the specified parts by weight of solvent and made up to the desired concentration with water containing an emulsifier concentration of 1000 ppm. To produce further test concentrations, the formulation is diluted with emulsifier-containing water. Discs of bean leaves (Phaseolus vulgaris) infested with all stages of the greenhouse red spider mite (Tetranychus urticae) are sprayed with an active ingredient formulation of the desired concentration. After 6 days, the efficacy in % is determined. 100% means that all the spider mites have been killed; 0% means that no spider mites have been killed.

Another experiment deals with Phaedon cochleariae. Nature of the experiment: Phaedon cochleariae spray test (PHAECO), Chinese cabbage leaf discs. The conditions noted are these: Phaedon cochleariae, foliar, 168 h. The method, then:
(§1) [table] To produce a suitable active ingredient formulation, 1 part by weight of active ingredient is dissolved with the specified parts by weight of solvent and made up to the desired concentration with water containing an emulsifier concentration of 1000 ppm. To produce further test concentrations, the formulation is diluted with emulsifier-containing water. Discs of Chinese cabbage leaves (Brassica pekinensis) are sprayed with an active ingredient formulation of the desired concentration and, after drying, populated with larvae of the mustard beetle (Phaedon cochleariae). After 7 days, the efficacy in % is determined. 100% means that all the beetle larvae have been killed; 0% means that no beetle larvae have been killed. [table] To produce an appropriate active ingredient formulation, 1 part by weight of active ingredient is dissolved with the stated parts by weight of solvent and made up with water containing an emulsifier concentration of 1000 ppm until the desired concentration is attained. For production of further test concentrations, the mixture is diluted with emulsifier-containing water. Discs of chinese cabbage leaves (Brassica pekinensis) are sprayed with an active ingredient formulation of the desired concentration and, after drying, populated with larvae of the mustard beetle (Phaedon cochleariae). After the desired time, the efficacy in % is determined. 100% means that all beetle larvae have been killed; 0% means that no beetle larvae have been killed.

Experiment [2] deals with Myzus persicae. Briefly: Myzus persicae spray test (MYZUPE), Chinese cabbage leaf discs. The conditions noted are these: Myzus persicae, foliar, 120 h, MYZUPE, 4 g/ha, 5 dat; read-out: % efficacy. The protocol: as §1, with “pekinensis) infested by all stages of the green peach aphid (Myzus persicae)” for “pekinensis)”, “concentration.” for “concentration and, after drying, populated with larvae of the mustard beetle (Phaedon cochleariae).”, “5” for “7”, “aphids” for “beetle larvae”

The subject of experiment [3] is Myzus persicae. Nature of the experiment: Myzus persicae drench test (MYZUPE D), savoy cabbage plants. The conditions noted are these: soil, 240 h, 10 dat, read-out: % efficacy. The protocol:
[table] To produce an appropriate active ingredient formulation, 1 part by weight of active ingredient is mixed with the specified amounts of solvent and emulsifier and the concentrate is diluted to the desired concentration with water, it being necessary to take into account the volume of soil into which drenching is effected. It should be ensured that a concentration of 40 ppm of emulsifier in the soil is not exceeded. For production of further test concentrations, the mixture is diluted with water. Savoy cabbage plants (Brassica oleracea) in soil pots, infested by all stages of the green peach aphid (Myzus persicae), are drenched with an active ingredient formulation of the desired concentration. After the desired time, the efficacy in % is determined. 100% means that all the aphids have been killed; 0% means that no aphids have been killed.

A further experiment concerns Aphis gossypii. Briefly: Aphis gossypii spray test (APHIGO), cotton plants. The conditions noted are these: Aphis gossypii, 144 h, 20 ppm, 6 dat, read-out: % efficacy. The protocol: [table] To produce an appropriate active ingredient formulation, 1 part by weight of active ingredient is dissolved with the specified parts by weight of solvent and made up with water containing an emulsifier concentration of 1000 ppm until the desired concentration is attained. To produce further test concentrations, the mixture is diluted with emulsifier-containing water. If addition of ammonium salts or/and penetrants is required, these are each added to the preparation solution in a concentration of 1000 ppm. Cotton plants (Gossypium hirsutum) severely infested by the cotton aphid (Aphis gossypii) are sprayed with an active ingredient formulation of the desired concentration. After the desired time, the kill in % is determined. 100% means that all aphids have been killed; 0% means that no aphids have been killed.

As to `CCS(=O)(=O)c1ccc(N(C)C(=O)NC)nc1-c1nc2cc(C(F)(F)F)nnc2n1C` [reference compound], the values for the Emax at 0.16 ppm in the experiment with Myzus persicae [1] (0.16 ppm) and in the experiment with Myzus persicae [3] (0.16 ppm) were 20% and 0%, respectively. Moreover, in the experiment with Myzus persicae [1] (0.8 ppm), the Emax at 0.8 ppm was 65%. Besides, the Emax at 4 g/ha amounted to 0% with Nezara viridula (4 g/ha); 0% in the experiment on Phaedon cochleariae (PHAECO, 4 g/ha, 7 dat, read-out: % efficacy); 0% with Myzus persicae [2]. Moreover, the Emax at 100 g/ha in the experiment on Tetranychus urticae is 0%. For the same compound, the percent efficacy (larval mortality) at a fixed application rate at 20 g/ha with Phaedon cochleariae (PHAECO, 20 g/ha, 7 dat) stood at 33%.

In the case of `CNC(=O)Nc1ccc(S(C)(=O)=O)c(-c2nc3cc(C(F)(F)F)nnc3n2C)n1` [reference compound], the Emax at 20 ppm in the experiment with Aphis gossypii was 0%. Moreover, the Emax at 20 g/ha came to 0% with Nezara viridula (20 g/ha) and 0% with Phaedon cochleariae (PHAECO, 20 g/ha, 7 dat, read-out: % efficacy). The pest or weed control at 100 g/ha with Phaedon cochleariae (100 g/ha, 7 days (7 dat), read-out: efficacy) is 33%. Moreover, the Emax at 0.8 ppm in the experiment on Myzus persicae [3] (0.8 ppm) was determined as 0%. Further, the Emax at 4 ppm in the experiment with Myzus persicae [3] (4 ppm) came out at 0%.
